Several values for one entry are separate records, joined by “and”; a condition that tells them apart may be missing. Identical values can stand only once.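 Protocol summary: plate cells (96-well), add compound at 5 concentrations, incubate 48 h, interpolate endpoints linearly. Abbreviation: GI50, concentration required for 50% inhibition of growth. TGI denotes the concentration required for complete inhibition of growth.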

Test systems include 786-0 renal; CCRF-CEM leukemia; KM12 colon; MDA-MB-231 breast; MOLT-4 leukemia; OVCAR-3 ovarian; PC-3 prostate; SF-539 CNS; SK-MEL-2 melanoma; SR leukemia.
Common to all, as to assay: NCI tumour cell line growth inhibition, 48 h

`Cc1ccc(-c2nc3nc(-c4ccccc4)nc(N4CCNCC4)c3o2)cc1`: the GI50 in the experiment on 786-0 renal was 0.585 µM; with CCRF-CEM leukemia, 0.276 µM; in the experiment with KM12 colon it was 0.345 µM; with MDA-MB-231 breast, 0.226 µM; with MOLT-4 leukemia, 0.238 µM; in the experiment on OVCAR-3 ovarian, 0.187 µM. The GI50 in the experiment with PC-3 prostate was 0.947 µM; in the experiment with SF-539 CNS, 0.703 µM; in the experiment on SK-MEL-2 melanoma it was 1.86 µM; in the experiment on SR leukemia, 0.223 µM. Moreover, the TGI in the experiment with 786-0 renal was found to be 1.27 µM; in the experiment on CCRF-CEM leukemia, 0.729 µM; in the experiment on KM12 colon, 1.36 µM; in the experiment on MDA-MB-231 breast, 0.537 µM; in the experiment with MOLT-4 leukemia, 0.573 µM; in the experiment with OVCAR-3 ovarian it was 0.352 µM. Also, the TGI was determined as 2.46 µM in the experiment with PC-3 prostate, 1.85 µM in the experiment on SF-539 CNS, 3.64 µM in the experiment on SK-MEL-2 melanoma and 0.611 µM in the experiment with SR leukemia.

In the case of `O=c1c(O)c(-c2ccc(O)c(O)c2)oc2cc(O)cc(O)c12`, the GI50 in the experiment with 786-0 renal was 21.9 µM; in the experiment with CCRF-CEM leukemia, 10.7 µM; with KM12 colon, 9.4 µM; in the experiment on MDA-MB-231 breast, 9.36 µM; with MOLT-4 leukemia it was 13 µM; with OVCAR-3 ovarian it was 16 µM. Besides, the GI50 with PC-3 prostate is 18.7 µM; with SF-539 CNS, 6.04 µM; in the experiment on SK-MEL-2 melanoma, 15.1 µM; in the experiment on SR leukemia, 3.57 µM. Further, the TGI was above 100 µM in the experiment with 786-0 renal; > 100 µM and 87.7 µM in the experiment with CCRF-CEM leukemia; 59.3 µM and > 100 µM in the experiment with KM12 colon; above 100 µM in the experiment with MDA-MB-231 breast; above 100 µM in the experiment with MOLT-4 leukemia; 49.2 µM and > 100 µM in the experiment with OVCAR-3 ovarian. Also, the TGI in the experiment with PC-3 prostate is above 100 µM; in the experiment with SF-539 CNS, 37.2 µM and > 100 µM; in the experiment with SK-MEL-2 melanoma, 47.3 µM and > 100 µM; in the experiment with SR leukemia, above 100 µM.

Take `Cc1ccc(C(=O)NC2CCC2)cc1-c1ccc(C(=O)NCC2CC2)cc1`: the GI50 in the experiment on 786-0 renal, with CCRF-CEM leukemia, in the experiment with KM12 colon, in the experiment on MDA-MB-231 breast, in the experiment with MOLT-4 leukemia and with OVCAR-3 ovarian was above 25 µM in each case. Besides, the GI50 in the experiment with PC-3 prostate, in the experiment with SF-539 CNS, in the experiment with SK-MEL-2 melanoma and with SR leukemia was above 25 µM throughout. The TGI with 786-0 renal, with CCRF-CEM leukemia, in the experiment with KM12 colon, with MDA-MB-231 breast, in the experiment with MOLT-4 leukemia and in the experiment with OVCAR-3 ovarian was above 25 µM in each case. For the same compound, the TGI in the experiment on PC-3 prostate, with SF-539 CNS, in the experiment on SK-MEL-2 melanoma and with SR leukemia was above 25 µM in each case.

Consider `O=C1c2ccc3c4c(ccc(c24)C(=O)N1CCCNCc1ccccc1Cl)C(=O)N(CCCNCc1ccccc1Cl)C3=O`, for which the GI50 in the experiment on 786-0 renal was 0.61 µM; in the experiment on CCRF-CEM leukemia it was 0.215 µM; in the experiment with KM12 colon it was 0.17 µM; with MDA-MB-231 breast, 0.25 µM; in the experiment on MOLT-4 leukemia, 0.168 µM; in the experiment with OVCAR-3 ovarian, 0.132 µM. The GI50 with PC-3 prostate is 0.268 µM; with SF-539 CNS, 0.669 µM; in the experiment on SK-MEL-2 melanoma, 0.415 µM; with SR leukemia, 0.151 µM. For the same compound, the TGI with 786-0 renal was 1.43 µM; in the experiment on CCRF-CEM leukemia, 50 µM; in the experiment with KM12 colon, 0.637 µM; with MDA-MB-231 breast it was 2.2 µM; in the experiment with MOLT-4 leukemia, 0.722 µM; in the experiment on OVCAR-3 ovarian, 0.345 µM. Also, the TGI in the experiment with PC-3 prostate amounted to 1.56 µM; in the experiment on SF-539 CNS, 1.38 µM; in the experiment on SK-MEL-2 melanoma it was 1.28 µM; in the experiment with SR leukemia it was 6.68 µM.

`COC(=O)Nc1nc2ccc(Oc3cccc(NC(=O)Nc4cc(C(F)(F)F)ccc4F)c3)cc2[nH]1`: the GI50 is above 25 µM with 786-0 renal; 10.1 µM with CCRF-CEM leukemia; 7.57 µM with KM12 colon; 11.4 µM in the experiment on MDA-MB-231 breast; 15.8 µM in the experiment with MOLT-4 leukemia; 14 µM in the experiment on OVCAR-3 ovarian. Also, the GI50 in the experiment on PC-3 prostate was 14.3 µM; in the experiment with SF-539 CNS it was above 21.6 µM; in the experiment on SK-MEL-2 melanoma it was 5.28 µM; in the experiment with SR leukemia, 10.2 µM. The TGI in the experiment on 786-0 renal, in the experiment on CCRF-CEM leukemia, with KM12 colon, in the experiment on MDA-MB-231 breast, in the experiment on MOLT-4 leukemia and with OVCAR-3 ovarian was above 25 µM throughout. In addition, the TGI in the experiment on PC-3 prostate was above 25 µM; with SF-539 CNS it was above 25 µM; in the experiment on SK-MEL-2 melanoma it was 19.5 µM; with SR leukemia, above 25 µM.

In the case of `COc1ccc(N(/C=C/C(=O)C(F)(F)F)CC(=O)c2ccc(F)cc2)cc1`, the GI50 with 786-0 renal is 21.1 µM; with CCRF-CEM leukemia it was 19.7 µM; in the experiment with KM12 colon it was 21.6 µM; with MDA-MB-231 breast it was 16.1 µM; in the experiment on MOLT-4 leukemia, 16.1 µM; in the experiment on OVCAR-3 ovarian, 21.2 µM. Further, the GI50 with PC-3 prostate is 23.1 µM; in the experiment with SF-539 CNS it was 21.4 µM; with SK-MEL-2 melanoma it was 31.6 µM; in the experiment on SR leukemia, 19.1 µM. Moreover, the TGI was determined as 52.4 µM in the experiment with 786-0 renal; 95.1 µM with CCRF-CEM leukemia; 56 µM with KM12 colon; 48.4 µM with MDA-MB-231 breast; 43.6 µM in the experiment on MOLT-4 leukemia; 48.6 µM with OVCAR-3 ovarian. The TGI stood at 85.7 µM in the experiment with PC-3 prostate, 52 µM in the experiment with SF-539 CNS, 67.2 µM in the experiment on SK-MEL-2 melanoma and 44.3 µM in the experiment with SR leukemia.

The record behind these values is PubChem BioAssay (NCI).
